One block for each compound: values may come before it.
Tests used:
[1] = Oligonucleotide probe stability in buffer and cell media; assay type: physicochemical; conditions: over a 35-hour period
27mer DNA template [2] = assay: Template-driven ligation of tetrazine and cyclopropene oligonucleotide probes (fluorescence); assay type: biochemical; conditions: for change in fluorescence in the absence of template: 1 μM probes, no template
Experimental: Tetrazine and cyclopropene-modified oligonucleotide probes were ligated in the presence of a DNA or RNA template at a 1:1:1 ratio. Reactions were done in varying solution and temperature conditions, as indicated. Main hybridization buffer was 50 mM MOPS at pH 7.5, 250 mM NaCl. Ligation reactions with a mismatched DNA template were performed in 5 mM MgCl2 in standard 1× Tris-borate buffer (purchased as 10× UltraPure TBE from Invitrogen: 1.0 M Tris pH 8.4, 0.9 M Boric acid, 10 mM EDTA).
Ligation reactions were done in standard 96 fluorescence well plates using SpectraMax GeminiXS (Molecular Devices). Temperature was set by the instrument. Where indicated by standard deviations, experiments were performed multiple times. In order to avoid any secondary structure artifacts, DNA or RNA template with added tetrazine probe was first heated to 90° C. and crash-cooled on ice for 2 min right before the experiment. Each well was filled with a total of 100 μL reaction solution, and reactions were timed from the addition of the cyclopropene probe as the last step before starting the measurements. Wells were scanned every 20-60 s depending on the speed of the reactions by using 485 nm excitation and 538 nm emission with the cutoff set at 495 nm. Control reactions without template were done in parallel each time. Buffer-only well intensities were subtracted from the measured raw data before analysis. Data was analyzed using GraphPad Prism 6.0 by applying a nonlinear fit of a one-phase association to each curve where fluorescein signal during reaction was measured.

27mer DNA template [3] = assay: Melting temperatures of DNA template with probes and ligation products; assay type: physicochemical; conditions: hybridization target against 27mer template; 250 mM NaCl in buffer; 1 μM each oligonucleotide
Experimental: Melting temperature of probes and ligation products in hybridization buffer (50 mM MOPS pH 7.5, 250 mM NaCl) were measured using a Beckman-Coulter DU 640 spectrophotometer equipped with a high performance temperature controller and micro auto six-cell holder. Samples at 1 μM concentration of each oligonucleotide were heated to 90° C. and slowly cooled to RT over 1-1.5 h before the measurements. Melting temperature values were obtained by cooling samples from 90° C. to 20° C. at the rate of 1° C./min and measuring at 1° C. increments with each read averaged over 1 s.

[4] = test system: LS174T human colon cancer cells; assay: Simultaneous imaging of two metabolically incorporated unnatural sugars and cross reactivity; assay type: cell-based
Experimental: (§1) The SKBR3 and LS174T cells were incubated for two days in the presence of 100 μM of Ac4ManNCyc and/or 50 μM Ac4GlcNAz on a Lab-Tek chamber slide maintained in cDMEM medium. Treatment of cells with tunicamycin was done by preparing a 0.2 mg/mL stock in DMSO, which was diluted to a final working concentration of 1.2 μM tunicamycin in cDMEM (0.5% DMSO). Cells were washed 3× with phosphate-buffered saline (PBS) and incubated for 1 hour at 37° C. in 10 μM tetrazine-BODIPY TMR-X, 10 μM tetrazine-Alexa flour 488 and/or 15 μM dibenzocyclooctyne (DIBO)-Alexa Fluor 647 in cDMEM. The media was aspirated, and cells were washed twice with PBS before imaging. All photos were collected with an Olympus FV1000 confocal microscope using ImageJ 1.45j software package.
Finally, we tested whether or not we could simultaneously image two different metabolically incorporated unnatural sugar derivatives, Ac4ManNCyc and tetraacetylated N-azidoacetylgalactosamine (Ac4GalNAz). […] Recent experimental work has shown that alkenes and azides can be mutually orthogonal to each other, even when using highly strained trans-cyclooctenes. Additionally, the Houk group has calculated that methyl-cyclopropene handles, such as those we have previously developed, should be mutually orthogonal to azide cyclooctyne reactions. We incubated LS174T human colon cancer cells with 100 μM Ac4ManNCyc and Ac4GalNAz for 2 days. After incubation, we sequentially stained the cells with 10 μM tetrazine-Alexa Fluor 488 and 15 μM dibenzocyclooctyne (DIBO) 647. […] Similar results were obtained with the SKBR3 cell line. […] The ability to simultaneously label two different metabolically incorporated molecules using live-cell compatible inverse-Diels-Alder and Huisgen reactions expands the capabilities of bioorthogonal metabolic imaging.

[5] = Aqueous stability of methyl-cyclopropenes by 1H NMR; assay type: physicochemical; conditions: for aqueous stability: aqueous deuterated solutions (D2O/DMSO-d6=4:1)
Text: (§2) After synthesizing the new cyclopropene mini-tags, we next sought to compare their reactivity with tetrazines through inverse Diels-Alder cycloaddition. Additionally, we also assayed their aqueous stability, since methyl-cyclopropene tags are envisioned to find application in bioorthogonal coupling reactions. In order to monitor kinetics, we reacted eight representative methyl-cyclopropenes with 1-methyl-4-aryl tetrazine under pseudo-first order conditions, and tracked the reaction of tetrazine by monitoring the disappearance of the characteristic absorption at 530 nm, similar to previous reports. For stability experiments, we incubated methyl-cyclopropenes in aqueous deuterated solutions (D2O/DMSO-d6=4:1) as indicated.

[6] = Reactivity of methyl-cyclopropene mini-tags with tetrazine, pseudo-first order; assay type: physicochemical; conditions: for rate of reaction with tetrazines (in words): aqueous solvent
Text: as §2

[7] = Storage stability of cyclopropene derivatives; assay type: physicochemical; conditions: for storage stability at −20° C.: stored at −20° C.
SKBR3 cells = assay: Live-cell microscopy of metabolically incorporated cyclopropene sugar; assay type: cell-based, human; conditions: glycosylation inhibitors or 20 mM ManNAc as competitive substrate
Experimental: SKBR3 and LS 174T cells were grown in cDMEM media supplemented with 10% fetal bovine serum, 1% L-glutamine, 1% penicillin/streptomycin. Cells were incubated in 5.0% carbon dioxide, 95% humidity at 37° C. Generally, cells were grown in T-75 tissue culture flasks, seeded at densities between 500,000 and 750,000 cells per flask (cells were quantified with the Life Technologies Countess automated cell counter). The cells were trypsinized with TrypLE Express and resuspended in cDMEM. Cells were allowed to incubate for two days before supplementing with Ac4ManNCyc (N-cyclopropeneacetylmannosamine) or Ac4GlcNAz (N-azidoacetylglucosamine). The cells were then analyzed via confocal microscopy and flow cytometry as described below.
as §1
In order to determine if Ac4ManNCyc was incorporated effectively by cells, we incubated adherent human breast cancer (SKBR3) and colon cancer (LS174T) cell lines with 100 μM Ac4ManNCyc for 48 hours in cell media and serum. After incubation, cells were thoroughly washed and then reacted for 1 hour with 10 μM of fluorogenic Alexa Fluor 488 tetrazine. After a second wash, cells were imaged by confocal microscopy (Olympus FV1000). […] In order to ensure that the staining was due to glycan uptake of the probe, we also performed controls by exposing cells to 100 μM Ac4ManNCyc and inhibiting uptake by using glycosylation inhibitors (ie. tunicamycin and αBnGalNAc) or 20 mM of ManNAc as a competitive substrate.^[14] […] These experiments provide evidence that the staining patterns are reporting on glycosylation and uptake of the unnatural cyclopropene mannosamine. We also performed additional studies using flow cytometry to quantitate the relative uptake of sugars that corroborated the imaging data.

[8] = Reaction rate determination of cyclopropenes with tetrazine 3; assay type: physicochemical
Experimental: A tetrazine 3 stock solution was prepared in DMSO and used to prepare tetrazine solutions at 0.6 mM final concentration in 12% v/v DMSO in ddH2O. Reactions were initiated with excess cyclopropene at final concentrations of 6.0, 8.0, and 10.0 mM. The disappearance of the tetrazine absorption peak at 520 nm was tracked over the reaction timeframe by measuring the absorption spectra using a NanoDrop 2000c spectrophotometer (Thermo Scientific). Samples were placed in a quartz cuvette with 10-mm pathlength and stirred at the maximum speed setting of the instrument. The temperature was uncontrolled by the instrument for room temperature (20° C.) measurements, and set and equilibrated at 37° C. for the higher temperature experiments.
Absorption spectra were measured manually over time. Absorption peak signal was taken as the average of measurements at 519-521 nm. Baseline signal was determined as the sloping line connecting the measured background levels preceding and following the tetrazine peak (410-430 nm and 590-610 nm, respectively). Final peak intensity value was taken as the signal above the baseline. Reaction rates were obtained by fitting the exponential decays of tetrazine peak absorption intensity as a pseudo first order reaction. Nonlinear data fits were performed with GraphPad Prism. Tetrazine reactions with cyclopropene carbamate 5 were carried out at 20 and 37° C. (data points and corresponding fitted curves at 20° C. in FIG. 51, 37° C. in FIG. 2c). Tetrazine reactions with cyclopropene carboxamide 2 were done at 37° C. ([…]. A representative comparison fit is shown for cyclopropenes 5 and 2 at 8.0 mM concentration reacting at 37° C. with 0.6 mM tetrazine.

Compound: 13merFl5′tet: 5′-tetrazine-/5AmMC6//iFluorT/CG ATG GCG TCA A-3′ (SEQ ID NO:4) (DNA CGATGGCGTCAA; 5' tetrazine, amino C6 linker, internal fluorescein-dT, chemistry not fully specified)
autohydrolytic turn-on [1]: minimal | change in fluorescence in the absence of template (27mer DNA template [2]; listed as 13merF15′tet): no appreciable change in fluorescence over time | change in fluorescence in the absence of template (27mer DNA template [2]; listed as Fluorogenic tetrazine probe): does not turn on | increase in the peak emission intensity (27mer DNA template [2]; reaction with the cyclopropene probe in the presence of a DNA template): 9.3 fold | Melting T (27mer DNA template [3]): 57.4 °C

Compound: CC(=O)OC[C@H]1OC(OC(C)=O)[C@H](NC(=O)CN=[N+]=[N-])[C@@H](OC(C)=O)[C@H]1OC(C)=O (stereo partly drawn) [Ac4GalNAz, tetraacetylated N-azidoacetylgalactosamine, reference compound]
cell surface staining after co-incubation of both sugars ([4]; 100 μM, 2 days, stained with 10 μM tetrazine-Alexa Fluor 488 and 15 μM DIBO 647): cell surface staining in both the fluorescent channels | cross reactivity: surface staining with tetrazine-Alexa Fluor 488 ([4]; cells incubated with only this sugar): minimal surface staining

Compound: CC1=CC1/C=C/C(=O)O (stereo not drawn) [Compound 13]
aqueous stability [5]: unstable to incubation in aqueous solvent at 37 °C

aqueous stability [5]: greatly improved stability
Compound: CC1=CC1/C=C/C(=O)NCCO (stereo not drawn) [Compound 14]
rate of reaction with tetrazines (in words) [6]: significantly lowered the rate of reaction with tetrazines

time to complete decomposition ([5]; D2O/DMSO-d6=4:1 at room temperature): 10.5 h | aqueous stability [5]: unstable in aqueous solution | storage stability at −20° C. [7]: not stable to long-term storage
Compound: CC1=CC1/C=C/CO (stereo not drawn) [Compound 16]
rate of reaction with tetrazines (in words) [6]: greatly increased the reaction rate

Compound: CC(=O)N[C@H]1[C@@H](O)[C@H](O)[C@@H](CO)O[C@@H]1O [ManNAc]
effect on staining of cells exposed to 100 μM Ac4ManNCyc (SKBR3 cells): lowered fluorescent signal

Compound: CC1=C([Si](C)(C)C)C1C=O (stereo not drawn) [cyclopropen aldehyde 11]
storage stability at −20° C. [7]: slowly degrading over 48 hours

Compound: CC1=CC1C(N)=O (stereo not drawn) [cyclopropene 2, 2-methylcycloprop-2-enecarboxamide]
second order rate constant ([8]; 37° C., water/DMSO (12% DMSO by volume)): 0.137 ± 0.004 M⁻¹ s⁻¹ | long-term storage stability [7]: could be stored for extended periods of time without degradation

long-term storage stability [7]: not amenable long-term storage
Compound: CC1=C([Si](C)(C)C)C1CN (stereo not drawn) [cyclopropene amine 3]

Compound: CC1=C([Si](C)(C)C)C1CN=[N+]=[N-] (stereo not drawn) [cyclopropene azide 2]
long-term storage stability [7]: not amenable long-term storage

Compound: CC(=O)N[C@H]1[C@@H](OCc2ccccc2)O[C@H](CO)[C@H](O)[C@@H]1O [αBnGalNAc]
effect on staining of cells exposed to 100 μM Ac4ManNCyc (SKBR3 cells): severely diminished staining

Compound: cyclopropene carbamate
rate of cycloaddition relative to cyclopropene amide 1 ([8]; reacting with tetrazine 3 in aqueous solution): approximately one-hundred times faster | rates of cycloaddition with unsubstituted tetrazine relative to methyl-tetrazine ([6]; previous studies with faster reacting unsubstituted tetrazine): 36 fold faster

Compound: tunicamycin
effect on staining of cells exposed to 100 μM Ac4ManNCyc (SKBR3 cells): severely diminished staining
